# Experimental data as given in article PMC3352823, “In Vitro and In Vivo Activity of a Palladacycle Complex on Leishmania (Leishmania) amazonensis” (PLoS Neglected Tropical Diseases, 2012).
# Test system: T1, L. (L.) amazonensis cathepsin B
# T1 construct: gene CPC; native enzyme in amastigote lysate (hamster lesion amastigotes), not purified; activity defined by cathepsin B substrate and CA074
# Format: biochemical, Leishmania amazonensis
# Conditions: substrate Abz-Gly-Ile-Val-Arg-Ala-Lys(Dnp)-OH 10 µM; pH 5.0, 37 °C, 2 mM DTT
smiles,measurement,value
CCCNC(=O)[C@H]1O[C@@H]1C(=O)N[C@H](C(=O)N1CCC[C@H]1C(=O)O)[C@@H](C)CC [CA074],IC50,700 ± 80 nM
